Laboratory results published in ChEMBL document CHEMBL1795250, “Synthesis and base-pairing properties of C-nucleotides having 1-substituted 1H-1,2,3-triazoles” (Bioorg Med Chem Lett, 2009).

Tests used:
Type in all cases: nucleic-acid assay
Nucleic Acid [1] = assay: Stabilization of 5'-AGAGAGAAAGAAAAA-3' ssDNA sequence assessed as melting temperature at pH7 using 100 mM NaCl
Nucleic Acid [2] = assay: Stabilization of 5'-AGAGAGACAGAAAAA-3' ssDNA sequence assessed as melting temperature at pH7 using 100 mM NaCl
Nucleic Acid [3] = assay: Stabilization of 5'-AGAGAGATAGAAAAA-3' ssDNA sequence assessed as melting temperature at pH7 using 100 mM NaCl
Nucleic Acid [4] = assay: Stabilization of 5'-AGAGAGAGAGAAAAA-3' ssDNA sequence assessed as melting temperature at pH7 using 100 mM NaCl

| SMILES | Tm (Nucleic Acid [1]) | Tm (Nucleic Acid [2]) | Tm (Nucleic Acid [3]) | Tm (Nucleic Acid [4]) |
| --- | --- | --- | --- | --- |
| Cc1cn([C@H]2C[C@H](OP(=O)(O)OC[C@H]3O[C@@H](n4cc(C)c(=O)[nH]c4=O)C[C@@H]3OP(=O)(O)OC[C@H]3O[C@@H](n4cc(C)c(N)nc4=O)C[C@@H]3OP(=O)(O)OC[C@H]3O[C@@H](n4cc(C)c(=O)[nH]c4=O)C[C@@H]3O)[C@@H](COP(=O)(O)O[C@H]3C[C@H](n4cc(C)c(=O)[nH]c4=O)O[C@@H]3COP(=O)(O)O[C@H]3C[C@H](n4cc(C)c(N)nc4=O)O[C@@H]3COP(=O)(O)O[C@H]3C[C@H](n4cc(C)c(=O)[nH]c4=O)O[C@@H]3COP(=O)(O)O[C@H]3C[C@H](n4cc(C)c(=O)[nH]c4=O)O[C@@H]3COP(=O)(O)O[C@H]3C[C@H](n4cc(C)c(=O)[nH]c4=O)O[C@@H]3COP(=O)(O)O[C@H]3C[C@H](n4cc(C)c(N)nc4=O)O[C@@H]3COP(=O)(O)O[C@H]3C[C@H](n4cc(C)c(=O)[nH]c4=O)O[C@@H]3COP(=O)(O)O[C@H]3C[C@H](n4cc(C)c(=O)[nH]c4=O)O[C@@H]3COP(=O)(O)O[C@H]3C[C@H](n4cc(C)c(=O)[nH]c4=O)O[C@@H]3COP(=O)(O)O[C@H]3C[C@H](n4cc(C)c(=O)[nH]c4=O)O[C@@H]3COP(=O)(O)O[C@H]3C[C@H](n4cc(C)c(=O)[nH]c4=O)O[C@@H]3CO)O2)c(=O)nc1N | 52 °C | 39 °C | 42 °C | 42 °C |
| Cc1cn([C@H]2C[C@H](OP(=O)(O)OC[C@H]3O[C@@H](n4cc(C)c(=O)[nH]c4=O)C[C@@H]3OP(=O)(O)OC[C@H]3O[C@@H](n4cc(C)c(N)nc4=O)C[C@@H]3OP(=O)(O)OC[C@H]3O[C@@H](n4cc(C)c(=O)[nH]c4=O)C[C@@H]3OP(=O)(O)OC[C@H]3O[C@@H](n4cc(C)c(N)nc4=O)C[C@@H]3OP(=O)(O)OC[C@H]3O[C@@H](n4cc(C)c(=O)[nH]c4=O)C[C@@H]3O)[C@@H](COP(=O)(O)O[C@H]3C[C@H](n4cc(C)c(=O)[nH]c4=O)O[C@@H]3COP(=O)(O)O[C@H]3C[C@H](c4cn(C56CC7CC(CC(C7)C5)C6)nn4)O[C@@H]3COP(=O)(O)O[C@H]3C[C@H](n4cc(C)c(=O)[nH]c4=O)O[C@@H]3COP(=O)(O)O[C@H]3C[C@H](n4cc(C)c(N)nc4=O)O[C@@H]3COP(=O)(O)O[C@H]3C[C@H](n4cc(C)c(=O)[nH]c4=O)O[C@@H]3COP(=O)(O)O[C@H]3C[C@H](n4cc(C)c(=O)[nH]c4=O)O[C@@H]3COP(=O)(O)O[C@H]3C[C@H](n4cc(C)c(=O)[nH]c4=O)O[C@@H]3COP(=O)(O)O[C@H]3C[C@H](n4cc(C)c(=O)[nH]c4=O)O[C@@H]3COP(=O)(O)O[C@H]3C[C@H](n4cc(C)c(=O)[nH]c4=O)O[C@@H]3CO)O2)c(=O)nc1N | 30 °C | 34 °C | 34 °C | 37 °C |
| Cc1ccc(-n2cc([C@H]3C[C@H](OP(=O)(O)OC[C@H]4O[C@@H](n5cc(C)c(=O)[nH]c5=O)C[C@@H]4OP(=O)(O)OC[C@H]4O[C@@H](n5cc(C)c(N)nc5=O)C[C@@H]4OP(=O)(O)OC[C@H]4O[C@@H](n5cc(C)c(=O)[nH]c5=O)C[C@@H]4OP(=O)(O)OC[C@H]4O[C@@H](n5cc(C)c(N)nc5=O)C[C@@H]4OP(=O)(O)OC[C@H]4O[C@@H](n5cc(C)c(=O)[nH]c5=O)C[C@@H]4OP(=O)(O)OC[C@H]4O[C@@H](n5cc(C)c(N)nc5=O)C[C@@H]4OP(=O)(O)OC[C@H]4O[C@@H](n5cc(C)c(=O)[nH]c5=O)C[C@@H]4O)[C@@H](COP(=O)(O)O[C@H]4C[C@H](n5cc(C)c(=O)[nH]c5=O)O[C@@H]4COP(=O)(O)O[C@H]4C[C@H](n5cc(C)c(N)nc5=O)O[C@@H]4COP(=O)(O)O[C@H]4C[C@H](n5cc(C)c(=O)[nH]c5=O)O[C@@H]4COP(=O)(O)O[C@H]4C[C@H](n5cc(C)c(=O)[nH]c5=O)O[C@@H]4COP(=O)(O)O[C@H]4C[C@H](n5cc(C)c(=O)[nH]c5=O)O[C@@H]4COP(=O)(O)O[C@H]4C[C@H](n5cc(C)c(=O)[nH]c5=O)O[C@@H]4COP(=O)(O)O[C@H]4C[C@H](n5cc(C)c(=O)[nH]c5=O)O[C@@H]4CO)O3)nn2)cc1 | 39 °C | 36 °C | 38 °C | 42 °C |
| Cc1cn([C@H]2C[C@H](OP(=O)(O)OC[C@H]3O[C@@H](n4cc(C)c(=O)[nH]c4=O)C[C@@H]3OP(=O)(O)OC[C@H]3O[C@@H](n4cc(C)c(N)nc4=O)C[C@@H]3OP(=O)(O)OC[C@H]3O[C@@H](n4cc(C)c(=O)[nH]c4=O)C[C@@H]3OP(=O)(O)OC[C@H]3O[C@@H](n4cc(C)c(N)nc4=O)C[C@@H]3OP(=O)(O)OC[C@H]3O[C@@H](n4cc(C)c(=O)[nH]c4=O)C[C@@H]3O)[C@@H](COP(=O)(O)O[C@H]3C[C@H](n4cc(C)c(=O)[nH]c4=O)O[C@@H]3COP(=O)(O)O[C@H]3C[C@H](c4cn(-c5ccc(C(=O)O)cc5)nn4)O[C@@H]3COP(=O)(O)O[C@H]3C[C@H](n4cc(C)c(=O)[nH]c4=O)O[C@@H]3COP(=O)(O)O[C@H]3C[C@H](n4cc(C)c(N)nc4=O)O[C@@H]3COP(=O)(O)O[C@H]3C[C@H](n4cc(C)c(=O)[nH]c4=O)O[C@@H]3COP(=O)(O)O[C@H]3C[C@H](n4cc(C)c(=O)[nH]c4=O)O[C@@H]3COP(=O)(O)O[C@H]3C[C@H](n4cc(C)c(=O)[nH]c4=O)O[C@@H]3COP(=O)(O)O[C@H]3C[C@H](n4cc(C)c(=O)[nH]c4=O)O[C@@H]3COP(=O)(O)O[C@H]3C[C@H](n4cc(C)c(=O)[nH]c4=O)O[C@@H]3CO)O2)c(=O)nc1N | 33 °C | 33 °C | 33 °C | 38 °C |

Results, then the compound that gave them:

| Tm (Nucleic Acid [1]) | Tm (Nucleic Acid [2]) | Tm (Nucleic Acid [3]) | Tm (Nucleic Acid [4]) | SMILES |
| --- | --- | --- | --- | --- |
| 37 °C | 38 °C | 40 °C | 40 °C | Cc1cn([C@H]2C[C@H](OP(=O)(O)OC[C@H]3O[C@@H](n4cc(C)c(=O)[nH]c4=O)C[C@@H]3OP(=O)(O)OC[C@H]3O[C@@H](n4cc(C)c(N)nc4=O)C[C@@H]3OP(=O)(O)OC[C@H]3O[C@@H](n4cc(C)c(=O)[nH]c4=O)C[C@@H]3OP(=O)(O)OC[C@H]3O[C@@H](n4cc(C)c(N)nc4=O)C[C@@H]3OP(=O)(O)OC[C@H]3O[C@@H](n4cc(C)c(=O)[nH]c4=O)C[C@@H]3O)[C@@H](COP(=O)(O)O[C@H]3C[C@H](n4cc(C)c(=O)[nH]c4=O)O[C@@H]3COP(=O)(O)O[C@H]3C[C@H](c4cn(CSc5ccccc5)nn4)O[C@@H]3COP(=O)(O)O[C@H]3C[C@H](n4cc(C)c(=O)[nH]c4=O)O[C@@H]3COP(=O)(O)O[C@H]3C[C@H](n4cc(C)c(N)nc4=O)O[C@@H]3COP(=O)(O)O[C@H]3C[C@H](n4cc(C)c(=O)[nH]c4=O)O[C@@H]3COP(=O)(O)O[C@H]3C[C@H](n4cc(C)c(=O)[nH]c4=O)O[C@@H]3COP(=O)(O)O[C@H]3C[C@H](n4cc(C)c(=O)[nH]c4=O)O[C@@H]3COP(=O)(O)O[C@H]3C[C@H](n4cc(C)c(=O)[nH]c4=O)O[C@@H]3COP(=O)(O)O[C@H]3C[C@H](n4cc(C)c(=O)[nH]c4=O)O[C@@H]3CO)O2)c(=O)nc1N |
| 32 °C | 34 °C | 33 °C | 38 °C | Cc1cn([C@H]2C[C@H](OP(=O)(O)OC[C@H]3O[C@@H](n4cc(C)c(=O)[nH]c4=O)C[C@@H]3OP(=O)(O)OC[C@H]3O[C@@H](n4cc(C)c(N)nc4=O)C[C@@H]3OP(=O)(O)OC[C@H]3O[C@@H](n4cc(C)c(=O)[nH]c4=O)C[C@@H]3OP(=O)(O)OC[C@H]3O[C@@H](n4cc(C)c(N)nc4=O)C[C@@H]3OP(=O)(O)OC[C@H]3O[C@@H](n4cc(C)c(=O)[nH]c4=O)C[C@@H]3O)[C@@H](COP(=O)(O)O[C@H]3C[C@H](n4cc(C)c(=O)[nH]c4=O)O[C@@H]3COP(=O)(O)O[C@H]3C[C@H](c4cn(Cc5ccccc5)nn4)O[C@@H]3COP(=O)(O)O[C@H]3C[C@H](n4cc(C)c(=O)[nH]c4=O)O[C@@H]3COP(=O)(O)O[C@H]3C[C@H](n4cc(C)c(N)nc4=O)O[C@@H]3COP(=O)(O)O[C@H]3C[C@H](n4cc(C)c(=O)[nH]c4=O)O[C@@H]3COP(=O)(O)O[C@H]3C[C@H](n4cc(C)c(=O)[nH]c4=O)O[C@@H]3COP(=O)(O)O[C@H]3C[C@H](n4cc(C)c(=O)[nH]c4=O)O[C@@H]3COP(=O)(O)O[C@H]3C[C@H](n4cc(C)c(=O)[nH]c4=O)O[C@@H]3COP(=O)(O)O[C@H]3C[C@H](n4cc(C)c(=O)[nH]c4=O)O[C@@H]3CO)O2)c(=O)nc1N |
| 35 °C | 39 °C | 39 °C | 39 °C | Cc1cn([C@H]2C[C@H](OP(=O)(O)OC[C@H]3O[C@@H](n4cc(C)c(=O)[nH]c4=O)C[C@@H]3OP(=O)(O)OC[C@H]3O[C@@H](n4cc(C)c(N)nc4=O)C[C@@H]3OP(=O)(O)OC[C@H]3O[C@@H](n4cc(C)c(=O)[nH]c4=O)C[C@@H]3OP(=O)(O)OC[C@H]3O[C@@H](n4cc(C)c(N)nc4=O)C[C@@H]3OP(=O)(O)OC[C@H]3O[C@@H](n4cc(C)c(=O)[nH]c4=O)C[C@@H]3O)[C@@H](COP(=O)(O)O[C@H]3C[C@H](n4cc(C)c(=O)[nH]c4=O)O[C@@H]3COP(=O)(O)O[C@H]3C[C@H](c4cn(CCCCCCCCCCO)nn4)O[C@@H]3COP(=O)(O)O[C@H]3C[C@H](n4cc(C)c(=O)[nH]c4=O)O[C@@H]3COP(=O)(O)O[C@H]3C[C@H](n4cc(C)c(N)nc4=O)O[C@@H]3COP(=O)(O)O[C@H]3C[C@H](n4cc(C)c(=O)[nH]c4=O)O[C@@H]3COP(=O)(O)O[C@H]3C[C@H](n4cc(C)c(=O)[nH]c4=O)O[C@@H]3COP(=O)(O)O[C@H]3C[C@H](n4cc(C)c(=O)[nH]c4=O)O[C@@H]3COP(=O)(O)O[C@H]3C[C@H](n4cc(C)c(=O)[nH]c4=O)O[C@@H]3COP(=O)(O)O[C@H]3C[C@H](n4cc(C)c(=O)[nH]c4=O)O[C@@H]3CO)O2)c(=O)nc1N |
